Like-named read-outs stand apart in the source and are kept apart here. Some results are limits rather than exact numbers.

This assay addresses T1, DCAF1 WD40 domain (residues 1077-1390) (Homo sapiens, UniProt Q9Y4B6).
T1 construct: DCAF1 WD40 domain (residues 1077-1390)
Put plainly: DCAF1 binding assay by SPR (Biacore 8K+), DCAF1-3 KD. The settings on record: 25 °C. Background: In SPR one partner is held on a chip, and binding of the other changes the refractive index at the surface.

T1 sequence (Q9Y4B6 1077-1390): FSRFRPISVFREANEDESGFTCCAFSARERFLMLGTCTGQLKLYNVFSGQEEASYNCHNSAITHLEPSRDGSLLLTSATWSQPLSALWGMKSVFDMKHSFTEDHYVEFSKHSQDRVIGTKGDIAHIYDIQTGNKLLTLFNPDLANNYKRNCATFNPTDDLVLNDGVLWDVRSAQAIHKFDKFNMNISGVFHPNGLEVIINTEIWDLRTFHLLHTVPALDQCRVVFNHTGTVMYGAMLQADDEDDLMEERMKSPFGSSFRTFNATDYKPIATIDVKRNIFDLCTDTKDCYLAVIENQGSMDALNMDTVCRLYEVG

With `NC(=O)C[C@H](NC(=O)c1cn[nH]c1-c1ccccc1C(N)=O)c1cccc(Cl)c1` [I-349], the Kd (usually a measure of binding affinity in units of concentration) (read-out: DCAF1-3 SPR (KD)) fell in the range of 10 to 100 µM. Still for that read-out and setting: in the case of `Fc1cccc(N2CCC[C@@H](Nc3cc([C@@H]4CCCCN4)ccn3)C2)c1` [I-124] it was greater than 200 µM. On the same count and under the same terms, next, `c1cc2ccnc(N3CCC[C@@H](Nc4cc(N5CCOCC5)ccn4)C3)c2cn1` [I-68]: 100 to 200 µM. Still for that read-out and setting: in the case of `Cc1sc2c(c1C)C(c1ccc(Cl)cc1)=N[C@@H](CC(=O)NCCOCCOCCOCCOCCOCCOCC(=O)c1[nH]cc(C(=O)N[C@@H](CC(N)=O)c3cccc(Cl)c3)c1-c1ccccc1F)c1nnc(C)n1-2` [I-898] it was less than 10 µM; in that of `O=C(CC1CC[C@@H](Nc2cc(N3CCOCC3)ccn2)CN1c1cccc(F)c1)Nc1cccc(Cl)c1` (stereo partly shown) [I-144], greater than 200 µM. With `Cc1c(F)ccc(F)c1-c1c(C(=O)N[C@@H](CC(N)=O)c2cccc(Cl)c2)cn(C)c1C#N` [I-887, (S)—N-(3-amino-1-(3-chlorophenyl)-3-oxopropyl)-5-cyano-4-(3,6-difluoro-2-methylphenyl)-1-methyl-1H-pyrrole-3-carboxamide], under “DCAF1-3 SPR (KD)”, the Kd is less than 10 µM. In the case of `Fc1cccc(N2CCC[C@@H](N(CCC(F)F)c3cc(N4CCOCC4)ccn3)C2)c1` [I-290], the Kd (read-out: DCAF1-3 SPR (KD)) was greater than 200 µM. Still for that read-out and setting: next, `NC(=O)C[C@H](NC(=O)c1c[nH]nc1-c1ccc[nH]c1=O)c1cccc(Cl)c1` [I-156]: greater than 200 µM.

Consider `Fc1cccc(N2CC[C@@H](Nc3cc(N4CCOCC4)ccn3)C2)c1` [I-198], for which, under “read-out: DCAF1-3 SPR (KD)”, the dissociation constant Kd was 10 to 100 µM. On the same count and under the same terms, in the case of `O=C1[C@H](Nc2cc(N3CCOCC3)ccn2)CCCN1c1cccc(F)c1` [I-281] it was greater than 200 µM. The same measure, in the same setting: next, `Cc1sc2c(c1C)C(c1ccc(Cl)cc1)=N[C@@H](CC(=O)NCCOCCOCCOCCOCCOCCn1cc(C(=O)N[C@@H](CC(N)=O)c3cccc(Cl)c3)c(-c3ccccc3F)n1)c1nnc(C)n1-2` [I-489]: 100 to 200 µM. The same measure, in the same setting: in the case of `CC(=O)Nc1ccc(N2CCC[C@H]3[C@@H]2CCN3c2cc(N3CCCCC3)ccn2)cc1F` [I-747] it was greater than 200 µM; in that of `Fc1cccc(N2CCC[C@@H](Nc3cncc(N4CCCCC4)c3)C2)c1` [I-528], greater than 200 µM; in that of `C=CC(=O)NC#Cc1n[nH]cc1C(=O)N[C@@H](CC(N)=O)c1cccc(Cl)c1` [I-473], greater than 200 µM. As for `Fc1cccc(N2CCC[C@@H](N(CCc3ccccc3)c3nccc(N4CCOCC4)n3)C2)c1` [I-323], the dissociation constant (Kd) (read-out: DCAF1-3 SPR (KD)) is greater than 200 µM. Same read-out and setting: in the case of `c1cc(N2CCC[C@@H](Nc3cc(N4CCOCC4)ncn3)C2)c2cnccc2c1` [I-395] it was greater than 200 µM; in that of `NC(=O)C[C@H](NC(=O)c1cc[nH]c1-c1ccccc1F)c1cccc(Cl)c1` [I-89], 10 to 100 µM; in that of `Cc1nc(N2CCC[C@@H](Nc3cc(N4CCOCC4)ccn3)C2)ccc1CO` [I-432], greater than 200 µM. On the same count and under the same terms, in the case of `Cc1c(F)ccc(F)c1-c1[nH]ncc1C(=O)N[C@@H](CC(=O)N1CCC(O)C1)c1cccc(Cl)c1` (stereo partly shown) [I-883] it was less than 10 µM; in that of `Cc1ccccc1[C@H](CC(N)=O)NC(=O)c1cn[nH]c1-c1ccccc1F` [I-105], less than 10 µM; in that of `C=CC(=O)N1C[C@H](c2ccc(Br)cc2)[C@@H]1C(=O)Nc1cccc2cccnc12` [I-517], greater than 200 µM. Still for that read-out and setting: in the case of `C=CC(=O)N1CC[C@H]1C(=O)N1CCN(c2ccnc(N[C@@H]3CCCN(c4cccc(F)c4)C3)c2)CC1` [I-479] it was greater than 200 µM; in that of `Cc1sc(N2CCC[C@@H](Nc3cc(N4CCOCC4)ccn3)C2)nc1-c1ccccc1` [I-411], greater than 200 µM. As to `C=CC(=O)N1CCC[C@@H](Nc2cc(N3CCOCC3)ccn2)C1` [I-449], under “read-out: DCAF1-3 SPR (KD)”, the dissociation constant Kd is greater than 200 µM. On the same count and under the same terms, next, `NC(=O)c1ccc(N2CCC[C@@H](Nc3cc(N4CCOCC4)ccn3)C2)cc1` [I-769]: greater than 200 µM; `Fc1cccc(N2CCC[C@@H](Nc3cc([C@H]4CCCNC4)ccn3)C2)c1` [I-110]: 10 to 100 µM; `C=CC(=O)NCCCCC1CCN(c2ccnc(N[C@@H]3CCCN(c4cccc(F)c4)C3)c2)CC1` [I-756]: 10 to 100 µM. The same measure, in the same setting: in the case of `O=C(O)C[C@H](NC(=O)c1cn[nH]c1-c1ccccc1F)c1cccc(Cl)c1` [I-740] it was 10 to 100 µM.

The values are drawn from patent US20260373266A1, “PROTEIN DEGRADERS AND USES THEREOF” (KYMERA THERAPEUTICS, INC., priority 2022, published 2026).
